Experimental data taken from US20170233345A1, “SUBSTITUTED QUINOLINE-4-CARBOXAMIDES AND USE THEREOF” (BAYER PHARMA AKTIENGESELLSCHAFT, priority 2014, published 2017).
Counter-ions that a name gives are not always drawn.

The molecules below were run on recombinant guanylate cyclase reporter cell line (assay: Effect on a recombinant guanylate cyclase reporter cell line). Details: in some cases mean values from individual determinations, read-out: MEC (minimum effective concentration).
Format: cell-based
Experimental: B-2. Effect on a Recombinant Guanylate Cyclase Reporter Cell Line
The cellular activity of the compounds according to the invention is determined using a recombinant guanylate cyclase reporter cell line, as described in F. Wunder et al., Anal. Biochem. 339, 104-112 (2005).
Representative MEC values (MEC=minimum effective concentration) for the compounds of the invention are shown in the table below (in some cases as mean values from individual determinations): […]
In the case of `O=C(Nc1cnn(CCO)c1)c1ccnc2c(OCc3c(F)cccc3F)cccc12` [Example 30], the minimal effective concentration is reported as 10 µM. `CCCC[C@H](CO)NC(=O)c1ccnc2c(OCc3c(F)cccc3F)cccc12` [Example 4, 8-[(2,6-Difluorobenzyl)oxy]-N-[(2R)-1-hydroxyhexan-2-yl]quinoline-4-carboxamide] showed a minimal effective concentration of 3 µM. `O=C(NC1(c2ccc(F)cc2)CC1)c1cnc2c(OCc3c(F)cccc3F)cccc2c1` [Example 39, 8-[(2,6-Difluorobenzyl)oxy]-N-[1-(4-fluorophenyl)cyclopropyl]quinoline-3-carboxamide] showed a minimal effective concentration of 1 µM. `O=C(NCc1ccccc1-n1ccnc1)c1ccnc2c(OCc3c(F)cccc3F)cccc12` [Example 28] was tested, and the minimal effective concentration was 3 µM. With `COc1ccc(CC(C)(N)CNC(=O)c2ccnc3c(OCc4c(F)cccc4F)cccc23)cc1` (racemic) [Example 35, rac-N-[2-amino-3-(4-methoxyphenyl)-2-methylpropyl]-8-[(2,6-difluorobenzyl)oxy]quinoline-4-carboxamide trifluoroacetate] the minimal effective concentration was 3 µM. `Cc1cc(OCc2c(F)cccc2F)c2nccc(C(=O)N[C@@](C)(CO)c3nnc(C)s3)c2c1` [Example 48, ent-8-[(2,6-Difluorobenzyl)oxy]-N-[(2S)-1-hydroxy-2-(5-methyl-1,3,4-thiadiazol-2-yl)propan-2-yl]-6-methylquinoline-4-carboxamide] was tested, and the minimal effective concentration was 3 µM. Molecule `CC1(C)CC(NC(=O)c2ccnc3c(OCc4c(F)cccc4F)cccc23)CC(C)(C)N1` [Example 12] has a minimal effective concentration of 10 µM. In the case of `O=C(NC1CCCc2ccccc21)c1ccnc2c(OCc3c(F)cccc3F)cccc12` (stereo not shown) [Example 29], the minimal effective concentration is reported as 0.3 µM. For `CC(N)(CNC(=O)c1ccnc2c(OCc3c(F)cccc3F)cccc12)CC(F)F` (single isomer, unassigned; enantiomer b) [Example 7, ent-N-(2-Amino-4,4-difluoro-2-methylbutyl)-8-[(2,6-difluorobenzyl)oxy]quinoline-4-carboxamide (Enantiomer B)], the minimal effective concentration was 2 µM. For `CCC(N)(CC)CNC(=O)c1ccnc2c(OCc3c(F)cccc3F)cccc12` [Example 11], the minimal effective concentration was 3 µM. Work on `N#C[C@H]1CC[C@H](CNC(=O)c2ccnc3c(OCc4c(F)cccc4F)cccc23)CC1` [Example 44] yielded a minimal effective concentration of 10 µM. Molecule `O=C(NCC1(O)CC1)c1ccnc2c(OCc3c(F)cccc3F)cccc12` [Example 22] has a minimal effective concentration of 3 µM. Work on `O=C(NCc1ccc(Cl)nc1)c1ccnc2c(OCc3c(F)cccc3F)cccc12` [Example 20] yielded a minimal effective concentration of 3 µM. `CCCC[C@H](C)NC(=O)c1ccnc2c(OCc3c(F)cccc3F)cccc12` [Example 3, 8-[(2,6-Difluorobenzyl)oxy]-N-[(2S)-hexan-2-yl]quinoline-4-carboxamide] gave a minimal effective concentration of 1 µM. `O=C(Nc1ccnc2ccc(F)cc12)c1ccnc2c(OCc3c(F)cccc3F)cccc12` [Example 2, 8-[(2,6-Difluorobenzyl)oxy]-N-(6-fluoroquinolin-4-yl)quinoline-4-carboxamide] showed a minimal effective concentration of 10 µM. `CC(C)(O)C(CCC(F)(F)C(F)(F)F)NC(=O)c1ccnc2c(OCc3c(F)cccc3F)cccc12` (single isomer, unassigned; ent-8) [Example 32, ent-8-[(2,6-Difluorobenzyl)oxy]-N-(6,6,7,7,7-pentafluoro-2-hydroxy-2-methylheptan-3-yl)quinoline-4-carboxamide (Enantiomer A)] was tested, and the minimal effective concentration was 2 µM. Molecule `O=C(N[C@@H](CO)C(=O)Nc1ccc2ccccc2c1)c1ccnc2c(OCc3c(F)cccc3F)cccc12` [Example 10] has a minimal effective concentration of 10 µM. For `O=C(NC1CC1c1ccccc1)c1ccnc2c(OCc3c(F)cccc3F)cccc12` (stereo not shown) [Example 13], the minimal effective concentration was 10 µM. `Cc1nn(Cc2ccc(F)cc2)c(C)c1NC(=O)c1ccnc2c(OCc3c(F)cccc3F)cccc12` [Example 17] gave a minimal effective concentration of 10 µM.
